Patent US6177474A, “Polyhydroxyphenol derivatives and preventive and therapeutic agents for bone and cartilage diseases containing the same” (Hoechst Marion Roussel, priority 1996, dated 2001)

Test system: bone cells containing osteoclast cells
Assay: Pit formation assay: inhibition of osteolysis (absorption pits on ivory slices)
Assay type: cell-based, ICR mice
Settings: for inhibition at 10 µM: Mus musculus, Osteoclast, read-out: Ratio of inhibition (%)
Method: ICR mice 11-12 days old (purchased from Charles River Japan) were euthanized by anesthesia with ether and immediately immersed in 70% ethanol for disinfection. By the use of ophthalmologist scissors and pincers sterilized in advance with ethanol, femur and tibia were excised from the sacrificed mice and chopped into small pieces in an α-MEM culture medium (purchased from Flow Laboratories Corp.). containing 5% FBS (purchased from Irvine Scientific Corp.), 100 U/ml penicillin and 100 μg/ml streptomycin. The supernatant formed consequently was recovered by pipeting, cleaned with the culture broth, and suspended in a 5% FBS α-MEM culture broth to obtain bone cells containing osteoclast cells. The supernatant of a bone cell-floating liquid formed after 3 minutes' standing of the bone cells at rest was recovered and passed through a mesh (cell strainer, 70 μm, purchased from Falcon Corp.). The filtrate was adjusted to a cell concentration of 1×10^7 /ml and used for the pit formation assay.
An ivory piece was cut into slices, 150 μm in thickness, by the use of a precision low-speed cutting machine (purchased from Buehler Corp.). Cylindrical holes, 6 mm in diameter, were perforated in the slices by the use of a one-hole punch. The ivory slices were immersed in 70% ethanol and subjected therein to an ultrasonic cleaning treatment twice each for five minutes and washed three times with a sterilized PBS and twice with the culture medium. The ivory slices were set in place on a 96-hole culture plate (purchased from Falcon Corp.). The perforated ivory slices on the culture plate, with a culture broth containing a given compound of the present invention prepared in a concentration of 2×10^-5 M added in a fixed volume of 100 μl (final medicine concentration 1×10^-5 M) to each of the holes and a culture broth containing prepared bone cells in a concentration of 1×10^7 /ml placed in each of the holes, were cultured for three days in a 10% CO2 incubator at 37° C. After the culture, the ivory slices were placed in an aqueous 2 N sodium hydroxide and the cells on the slices were removed by the use of a rubber spatula. The ivory slices were washed with water and methanol. The absorption pits formed in the ivory slices were dyed with Coomassie Brilliant Blue and were counted under a microscope. Though the numbers of absorption pits were naturally found to disperse among test lots, depending on the ratios of varying specie s of cells in the bone cell suspensions and the lots of animals used, satisfactorily uniform test results were found in one and the same test lot. The ratio of inhibition of osteolysis was calculated on the 100% scale, in which 0% stands for the number of absorption pits found in the culture broth in the presence of rPTH (1×10^-8 M) and in the absence of a medicine and 100% for total absence of absorption pit.
The test described above was performed in a total of ten runs, Tests 1-10.
In the columns titled "Added medicine No." found in Table 2 and Table 3, the symbol (-) denotes a control involving no addition of medicine and the numerical No. denotes the No. of the compound mentioned above.

[1] = 72 h, compound 10^-5 M, 0% = pits with rPTH (1×10^-8 M) without medicine, 100% = no absorption pit

Row | Compound | No. of absorption pits (Mean ± SD) (72 h, 10 µM) | inhibition at 10 µM [1] [%] | No. of absorption pits (Mean ± SD) (compound 10^-5 M, 3 days culture at 37° C., 10% CO2, control per test run given as (-)) | Ratio of inhibition (%) (compound 10^-5 M, 0% = pits with rPTH (1×10^-8 M) without medicine, 100% = no absorption pit, 4320 min, 10 µM)
1 | CC(C)=CCc1c(O)c(O)cc(C(=O)CC(C)C)c1O [Compound 26, {3-(3-methyl-2-butenyl)-2,4,5-trihydroxyphenyl} (2-methylpropyl) ketone] | 29.3 ± 4.8 | 85.5 | – | –
2 | CC(C)CCc1c(O)c(CCC(C)C)c(O)c(C(=O)CC(C)C)c1O [Compound 37, {3,5-bis(3-methylbutyl)-2,4,6-trihydroxyphenyl} (2-methylpropyl) ketone] | 14.4 ± 4.9 | 91.1 | – | –
3 | CC(C)=CCC1=C(O)C(CC=C(C)C)(CC=C(C)C)C(=O)C(C(=O)CC(C)C)=C1O [Compound 16, 3,5-dihydroxy-6-(3-methyl-1-oxobutyl)-2,2,4-tris(3-methyl-2-butenyl)cyclohexa-3,5-dienone] | 0 | 100 | – | –
4 | CC(C)=CCc1c(O)ccc(C(=O)CC(C)C)c1O [Compound 54, (2,4-dihydroxy-3-(3-methyl-2-butenyl)phenyl) (2-methylpropyl) ketone] | 66.5 ± 9.7 | 61.2 | – | –
5 | CC(=O)C1=C(O)C(CC=C(C)C)=C(O)C(O)(CC=C(C)C)C1=O (centres unmarked) [Compound 30, 2,4-bis(3-methyl-2-butenyl)-6-(1-oxoethyl)-2,3,5-trihydroxycyclohexa-3,5-dienone] | 21.4 ± 3.9 | 78.2 | – | –
6 | CC(C)CCCC(C)CC(=O)c1c(O)cc(O)cc1O (centres unmarked) [Compound 6, (2,6-dimethylheptyl) (2,4,6-trihydroxyphenyl) ketone] | 63.4 ± 12.4 | 61.4 | – | –
7 | (2,4,5-trihydroxyphenyl) (2-methylpropyl) ketonemono(3-methyl-2-butenyl) ether [Compound 28] | – | – | 61.3 ± 5.5 | 69.6
8 | CC(C)=CCCC(C)=CCC1=C(O)C(CC=C(C)CCC=C(C)C)(CC=C(C)CCC=C(C)C)C(=O)C(C(=O)CC(C)C)=C1O (centres unmarked) [Compound 20, 3,5-dihydroxy-6-(3-methyl-1-oxobutyl)-2,2,4-tris(3,7-dimethyl-2,6-octadienyl)cyclohexa-3,5-dienone] | 3.0 ± 1.3 | 98.4 | – | –
9 | CC(C)=CCc1c(O)cc(C)c(C(=O)CC(C)C)c1O [Compound 49, {2,4-dihydroxy-6-methyl-3-(3-methyl-2-butenyl)phenyl} (2-methylpropyl) ketone] | 44.3 ± 5.4 | 78 | – | –
10 | CC(C)=CCc1c(O)cc(O)c(C(=O)CC(C)C)c1C [Compound 50, {4,6-dihydroxy-2-methyl-3-(3-methyl-2-butenyl)phenyl} (3-methylpropyl) ketone] | 40.1 ± 7.0 | 80.1 | – | –
11 | CC(C)=CCc1c(O)c(CC=C(C)C)c(O)c(C(=O)CC(C)C)c1O [Compound 15, {3,5-bis(3-methyl-2-butenyl)-2,4,6-trihydroxyphenyl} (2-methylpropyl) ketone] | 8.3 ± 2.4 | 89.6 | – | –
12 | CC(C)=CCCC(C)=CCc1c(O)c(CC=C(C)CCC=C(C)C)c(O)c(C(=O)CC(C)C)c1O [Compound 19, {3,5-bis(3,7-dimethyl-2,6-octadienyl)-2,4,6-trihydroxyphenyl} (2-methylpropyl) ketone] | 55.3 ± 6.1 | 70.5 | – | –
13 | CC(C)=CCOc1ccc(C(=O)CC(C)C)c(O)c1 [Compound 53, {2-hydroxy-4-(3-methyl-2-butenyloxy)phenyl} (2-methylpropyl) ketone] | 55.1 ± 11.1 | 67.8 | – | –
14 | CC(C)=CCCC(C)=CCc1c(O)c(CC=C(C)CCC=C(C)C)c(O)c(C(=O)Cc2ccccc2)c1O [Compound 43, {3,5-bis(3,7-dimethyl-2,6-octadienyl)-2,4,6-trihydroxyphenyl} (phenylmethyl) ketone] | 11.3 ± 2.5 | 95 | – | –
15 | CC(C)CC(=O)c1c(O)c(Cc2ccccc2)c(O)c(Cc2ccccc2)c1O [Compound 34, {3,5-bisbenzyl-2,4,6-trihydroxyphenyl} (2-methylpropyl) ketone] | 8.2 ± 1.9 | 95.9 | – | –
16 | CC(C)=CCOc1cc(C)c(C(=O)CC(C)C)c(O)c1 [Compound 48, {2-hydroxy-6-methyl-4-(3-methyl-2-butenyloxy)phenyl} (2-methylpropyl) ketone] | 85.2 ± 7.5 | 57.8 | – | –
17 | CC(C)=CCc1cc(C(=O)CC(C)C)c(O)cc1O [Compound 55, {2,4-dihydroxy-5-(3-methyl-2-butenyl)phenyl} (2-methylpropyl)ketone] | 15.8 ± 3.3 | 90.8 | – | –
18 | CC(C)CC(=O)C1=C(O)C(Cc2ccccc2)=C(O)C(Cc2ccccc2)(Cc2ccccc2)C1=O [Compound 36, 2,2,4-trisbenzyl-6-(3-methyl-1-oxobutyl)-3,5-dihydroxycyclohexa-3,5-dienone] | 3.8 ± 0.9 | 98.1 | – | –
19 | CC(C)CC(=O)c1ccc(O)cc1O [Compound 52, (2,4-dihydroxyphenyl)(2-methylpropyl) ketone] | 94.3 ± 13.8 | 44.9 | – | –
20 | CC(C)=CCC1(CC=C(C)C)C(=O)C(C(=O)Cc2ccccc2)=C(O)C=C1O [Compound 41, 3,5-dihydroxy-6-(phenylacetyl)-2,2-bis(3-methyl-2-butenyl)cyclohexa-3,5-dienone] | 3.2 ± 0.7 | 97.4 | – | –
21 | CC(C)=CCC1=C(O)C(O)(CC=C(C)C)C(=O)C(C(=O)c2ccccc2)=C1O (centres unmarked) [Compound 32, 2,4-bis(3-methyl-2-butenyl)-6-benzoyl-2,3,5-trihydroxycyclohexa-3,5-dienone] | 33.9 ± 4.1 | 65.7 | – | –
22 | CC(C)=CCC1=C(O)C(CC=C(C)C)(CC=C(C)C)C(=O)C(C(=O)CC(C)CCCC(C)C)=C1O (centres unmarked) [Compound 22, 3,5-dihydroxy-6-(3,7-dimethyl-1-oxooctyl)-2,2,4-tris(3-methyl-2-butenyl)cyclohexa-3,5-dienone] | 3.5 ± 1.1 | 98.1 | – | –
23 | Cc1cc(O)cc(O)c1C(=O)CC(C)C [Compound 47, (2,4-dihydroxy-6-methylphenyl) (2-methylpropyl) ketone] | 179.8 ± 23.8 | 10.9 | – | –
24 | CC(C)=CCc1c(O)cc(O)c(C(=O)Cc2ccccc2)c1O [Compound 42, {3-(3-methyl-2-butenyl)-2,4,6-trihydroxyphenyl} (phenylmethyl) ketone] | 31.7 ± 3.6 | 74.7 | – | –
25 | CC(C)=CCCC(C)=CCC1(CC=C(C)CCC=C(C)C)C(=O)C(C(=O)Cc2ccccc2)=C(O)C=C1O (centres unmarked) [Compound 45, 3,5-dihydroxy-6-(phenylacetyl)-2,2-bis(3,7-dimethyl-2,6-octadienyl)cyclohexa-3,5-dienone] | 8.2 ± 1.8 | 96.4 | – | –
26 | CC(C)=CCc1c(O)c(CC=C(C)C)c(O)c(C(=O)Cc2ccccc2)c1O [Compound 39, {3,5-bis(3-methyl-2-butenyl)-2,4,6-trihydroxyphenyl} (phenylmethyl) ketone] | 49.2 ± 9.4 | 72.6 | – | –
27 | CC(C)=CCC1(CC=C(C)C)C(=O)C(C(=O)CC(C)CCCC(C)C)=C(O)C=C1O (centres unmarked) [Compound 24, 2,2-bis(3-methyl-2-butenyl)-3,5-dihydroxy-6-(3,7-dimethyl-1-oxooctyl)cyclohexa-3,5-dienone] | 39.3 ± 13.9 | 75.8 | – | –
28 | CC(C)=CCCC(C)=CCC1=C(O)C(CC=C(C)CCC=C(C)C)(CC=C(C)CCC=C(C)C)C(=O)C(C(=O)Cc2ccccc2)=C1O (centres unmarked) [Compound 44, 3,5-dihydroxy-6-(phenylacetyl)-2,2,4-tris(3,7-dimethyl-2,6-octadienyl)cyclohexa-3,5-dienone] | 7.7 ± 2.0 | 96.6 | – | –
